“And” between values parts separate entries of the source, which are not always exact repeats. Equal entries are not always repeated.
Tested on: 695427-040-R-J1-PDC complex spheroids, viability percent T/C
Assay: Anticancer human tumor 695427-040-R-J1-PDC patient-derived colon adenocarcinoma cell line growth inhibition [GQUAD]
Details: for viability, T/C: stronger effect = lower value
Text: DNA G-quadruplex Stabilizer Agents in Combinations in Complex Spheroids
A high-throughput screen of multi-cell type tumor spheroids was designed to identify active combinations of DNA G-quadruplex stabilizer agents and targeted small molecules. Complex spheroids include a stromal component modeled by human endothelial cells (HUVEC) and fibroblasts modeled by human mesenchymal stem cells (MSCs). The concentration ranges selected for each drug and investigational agent were based upon clinically achievable concentrations if the clinical Cmax of the agent was known.
Compounds. The drugs and investigational agents: pidnarulex (CX-5461; NSC782164), APTO-253 (NSC789042), BRACO-19 (NSC847499), peposertib (NSC802822), ceralasertib (NSC780249), elimusertib (NSC800525), camonsertib (NSC841442), AZD-1390 (NSC803789), olaparib (NSC753686), talazoparib (NSC767125), ART-558 (NSC835418), sotorasib (NSC818433), MRTX-1133 (NSC836407), SN-38 (NSC673596), topotecan (NSC609699), etoposide (NSC141540), doxorubicin (NSC123127), gemcitabine (NSC613327), 5-fluorouracil (NSC19893), paclitaxel (NSC125973), vemurafenib (NSC761431), panobinostat (NSC761190), R-306465 (JNJ-16241199; NSC773264), adavosertib (NSC754352), TP-3654 (NSC805149), carboplatin (NSC241240), KSQ-4279 (NSC840948), and staurosporine (NSC755774) were obtained from the National Cancer Institute (NCI) Developmental Therapeutics Program Chemical Repository (34). The FDA-approved anticancer drug set is available from the NCI Developmental Therapeutics Program. […] The stock solutions were prepared in dimethyl sulfoxide (DMSO, Sigma-Aldrich, St. Louis, MO, cat. D2650) at 800-fold the tested concentration and stored at -70 degrees C prior to their use. All drugs and investigational agents were tested over a range starting from a high concentration at or near the clinical Cmax and decreasing in half-log increments. If the clinical Cmax for an agent had not been determined, the highest concentration tested was 10 microM.
2.3 Cell Culture. All cells were maintained in an incubator at 37 degrees C and 5% CO2 with 95% humidity. The PDC lines were cultured according to standard operating procedures established by the NCI PDMR. All PDCs were thawed and cultured in Matrigel-coated flasks prepared with a working solution of 1X Ham's F-12 nutrient mix, without supplementation (Invitrogen, cat. 11765054), 100 U/mL penicillin-streptomycin (Invitrogen, cat. 15140122), and 2.5% Matrigel (Corning Inc., cat. 354248) for the first three passages. The 857933-349-R-J2-PDC line was cultured in 6C/Colon 1B media, which includes advanced DMEM/F-12 (Thermo Fisher Scientific, cat. 12634028), 10 mM HEPES (Thermo Fisher Scientific, cat. 15630080), 1X GlutaMAX supplement (Thermo Fisher Scientific, cat. 35050061), 0.1 mg/mL primocin (InvivoGen, cat. ant-pm-2), 10% defined fetal bovine serum, heat inactivated (HyClone Laboratories Inc., cat. SH30070.03HI), 50% L-WRN conditioned media (ATCC, cat. CRL-3276), 1.25 mM N-Acetyl-L-cysteine (Sigma-Aldrich, cat. A9165), 10 mM nicotinamide (Sigma-Aldrich, cat. N0636), 1X B-27 supplement (Thermo Fisher Scientific, cat. 17504044), 1X N-2 supplement (Thermo Fisher Scientific, cat. 17502048), 10 microM Y-27632 dihydrochloride (Tocris Bioscience, cat. 1254), and 50 ng/mL human EGF recombinant protein (Thermo Fisher Scientific, cat. PHG0311). The 485176-168-R4-J1-PDC line was cultured in Panc media, which includes all 6C/Colon 1B media components plus 100 ng/mL human FGF-10 (Thermo Fisher Scientific, cat. 100-26), 500 nM SB-431542 (Selleckchem, cat. S1067), and gastrin (Tocris, cat. 3006).
[…]

[1] = curve of first compound, second compound 0.0316 µM
[2] = curve of first compound, second compound 0.1 µM
[3] = curve of first compound, second compound 0.316 µM
[4] = curve of first compound, second compound 1 µM
[5] = curve of first compound, second compound 3.16 µM
[6] = curve of first compound, second compound 10 µM
[7] = second compound 0.0316 µM, first compound 0.0316 µM
[8] = second compound 0.0316 µM, first compound 0.1 µM
[9] = second compound 0.0316 µM, first compound 0.316 µM
[10] = second compound 0.0316 µM, first compound 1 µM
[11] = second compound 0.0316 µM, first compound 3.16 µM
[12] = second compound 0.0316 µM, first compound 10 µM
[13] = second compound 0.1 µM, first compound 0.0316 µM
[14] = second compound 0.1 µM, first compound 0.1 µM
[15] = second compound 0.1 µM, first compound 0.316 µM
[16] = second compound 0.1 µM, first compound 1 µM
[17] = second compound 0.1 µM, first compound 3.16 µM
[18] = second compound 0.1 µM, first compound 10 µM
[19] = second compound 0.316 µM, first compound 0.0316 µM
[20] = second compound 0.316 µM, first compound 0.1 µM
[21] = second compound 0.316 µM, first compound 0.316 µM
[22] = second compound 0.316 µM, first compound 1 µM
[23] = second compound 0.316 µM, first compound 3.16 µM
[24] = second compound 0.316 µM, first compound 10 µM
[25] = second compound 1 µM, first compound 0.0316 µM
[26] = second compound 1 µM, first compound 0.1 µM
[27] = second compound 1 µM, first compound 0.316 µM
[28] = second compound 1 µM, first compound 1 µM
[29] = second compound 1 µM, first compound 3.16 µM
[30] = second compound 1 µM, first compound 10 µM
[31] = second compound 3.16 µM, first compound 0.0316 µM
[32] = second compound 3.16 µM, first compound 0.1 µM
[33] = second compound 3.16 µM, first compound 0.316 µM
[34] = second compound 3.16 µM, first compound 1 µM
[35] = second compound 3.16 µM, first compound 3.16 µM
[36] = second compound 3.16 µM, first compound 10 µM
[37] = second compound 10 µM, first compound 0.0316 µM
[38] = second compound 10 µM, first compound 0.1 µM
[39] = second compound 10 µM, first compound 0.316 µM
[40] = second compound 10 µM, first compound 1 µM
[41] = second compound 10 µM, first compound 3.16 µM
[42] = second compound 10 µM, first compound 10 µM
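Note: spheroids exposed to compounds for seven days before readout.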

For `Cc1cccc(N(C)C(=O)C2C(O)CCN2c2nc(C)cc(C(F)(F)F)c2C#N)c1` (stereo unspecified) + CN(C)c1ccc(Nc2c3ccc(NC(=O)CCN4CCCC4)cc3nc3cc(NC(=O)CCN4CCCC4)ccc23)cc1, the IC50 [1] was over 10 µM, the IC50 [2] was over 10 µM and the IC50 [3] was over 10 µM. The IC50 [4] was over 10 µM, the IC50 [5] was over 10 µM and the IC50 [6] was over 10 µM. The viability, T/C [7] was 111%, the viability, T/C [8] was 103% and the viability, T/C [9] was 106%. The viability, T/C [10] was 99.9%, the viability, T/C [11] was 107% and the viability, T/C [12] was 90.3%. For the same compound, the viability, T/C [13] was 110%, the viability, T/C [14] was 92.3% and the viability, T/C [15] was 106%. For the same compound, the viability, T/C [16] was 102%, the viability, T/C [17] was 101% and the viability, T/C [18] was 95.6%. For the same compound, the viability, T/C [19] was 110%, the viability, T/C [20] was 101% and the viability, T/C [21] was 97.3%. The viability, T/C [22] was 98.2%, the viability, T/C [23] was 107% and the viability, T/C [24] was 103%. The viability, T/C [25] was 104%, the viability, T/C [26] was 90.7% and the viability, T/C [27] was 98.3%. It also gave a viability, T/C [28] of 96.1%, a viability, T/C [29] of 104% and a viability, T/C [30] of 101%. For the same compound, the viability, T/C [31] was 93.6%, the viability, T/C [32] was 94.6% and the viability, T/C [33] was 95.4%. It also gave a viability, T/C [34] of 95.6%, a viability, T/C [35] of 106% and a viability, T/C [36] of 93.9%. The viability, T/C [37] was 81%, the viability, T/C [38] was 86.6% and the viability, T/C [39] was 88.9%. For the same compound, the viability, T/C [40] was 78.8%, the viability, T/C [41] was 91.2% and the viability, T/C [42] was 85.8%.
`COc1ncnc(C2CC2)c1-c1ncc2cnn(Cc3ccc(-c4nc(C(F)(F)F)cn4C(C)C)cc3)c2n1` + Cc1cnc(CNC(=O)c2c(=O)c3ccc(N4CCCN(C)CC4)nc3n3c2sc2ccccc23)cn1 showed an IC50 [1] of over 10 µM, an IC50 [2] of over 10 µM and an IC50 [3] of over 10 µM. The IC50 [4] was over 10 µM, the IC50 [5] was under 0.0316 µM and the IC50 [6] was under 0.0316 µM. The viability, T/C [7] was 104%, the viability, T/C [8] was 75.9% and the viability, T/C [9] was 80.3%. It also gave a viability, T/C [10] of 62.4%, a viability, T/C [11] of 83.7% and a viability, T/C [12] of 75.6%. The viability, T/C [13] was 90.4%, the viability, T/C [14] was 63.2% and the viability, T/C [15] was 71.9%. The viability, T/C [16] was 81.4%, the viability, T/C [17] was 72.1% and the viability, T/C [18] was 79.7%. The viability, T/C [19] was 66.3%, the viability, T/C [20] was 67.9% and the viability, T/C [21] was 58.5%. It also gave a viability, T/C [22] of 65.2%, a viability, T/C [23] of 62.8% and a viability, T/C [24] of 69.2%. The viability, T/C [25] was 56.1%, the viability, T/C [26] was 58.1% and the viability, T/C [27] was 70%. The viability, T/C [28] was 64.5%, the viability, T/C [29] was 68.4% and the viability, T/C [30] was 73.9%. It also gave a viability, T/C [31] of 34.3%, a viability, T/C [32] of 37.7% and a viability, T/C [33] of 42.8%. It also gave a viability, T/C [34] of 43%, a viability, T/C [35] of 53.2% and a viability, T/C [36] of 45.8%. For the same compound, the viability, T/C [37] was 18.6%, the viability, T/C [38] was 31.1% and the viability, T/C [39] was 43.1%. It also gave a viability, T/C [40] of 29.9%, a viability, T/C [41] of 34.6% and a viability, T/C [42] of 24.1%.
In the case of `C=CCn1c(=O)c2cnc(Nc3ccc(N4CCN(C)CC4)cc3)nc2n1-c1cccc(C(C)(C)O)n1`, the viability, T/C (compound 0.0316 µM) is reported as 102% and 100% and 86.2%, the viability, T/C (compound 0.1 µM) is reported as 105% and 85.8% and 89.5% and the viability, T/C (compound 0.316 µM) is reported as 107% and 86.4% and 87.7%. The viability, T/C (compound 1 µM) was 105% and 80.5% and 61.6%, the viability, T/C (compound 3.16 µM) was 107% and 68.6% and 54.9% and the viability, T/C (compound 10 µM) was 66.5% and 54.9% and 35.4%. For the same compound, the IC50 (curve of compound) was > 10 µM and 3.18 µM.

— PubChem BioAssay AID2060492 (Molecular Pharmacology Branch, DTP, NCI, 2025)
